{"source": "patent EP4595972A1", "about": "“PEPTIDE FOR TREATING OR PREVENTING 4R TAUOPATHY” (GemVax & KAEL Co., Ltd., priority 2022, dated 2024)", "key": {"[1]": {"conditions": "patients with mild or moderate Alzheimer's disease; most general cause for stopping high-dose LMTM; cited from earlier work"}, "[2]": {"test_system": "AT8 (phospho-Tau S202/T205)", "experiment": "AT8 immunofluorescent staining of brain tissues (tau hyperphosphorylation)", "assay_type": "in vivo, mouse", "excerpt": "(§1) • 1) Experimental method for brain tissue sampling • (1) On day 1, after completing 63 times administration schedule, the mice of TauP301L-BiFC mouse model were anesthetized, followed by preparing heart laparotomy. • (2) Saline was introduced into the heart of each mouse in the TauP301L-BiFC mouse model, followed by removing vivo blood using a perfusion pump machine. • (3) The brain of the mouse was extracted and weighed. • (4) The brain to be used for tissue staining experiment was immersed in 4% FPA solution and fixed for 24 hours. • (5) On day 2, after completing fixation, the brain tissues were immersed in 20% sucrose solution to remove water for 24 hours. • (6) On day 3, the brain tissues were immersed in 30% sucrose solution to remove water for 48 hours. • (7) On day 5, the brain tissues free of water were taken and extra moisture was removed. Then, the brain tissues and a frozen tissue embedding agent (OCT compound) were placed in a prepared mold, followed by freezing the brain tissues as fast as possible while protecting the tissues. The frozen brain tissue-containing mold was stored in a defreezer at -80°C. Thereafter, using a cryostat for frozen fragment, the tissues were cut into a unit thickness of 30 µm and stored in 0.05% sodium azide solution.\n• (1) On day 1, a brain tissue sample having a thickness of 30 µm under cryosection was selected for each brain region, immersed in PBS solution, and then washed three times for 10 minutes. • (3) The sample was fixed in 3.7% formaldehyde for 5 minutes. • (4) The sample was washed in PBS solution three times for 10 minutes. • (5) The brain tissue sample was subjected to permeabilization in 0.3% PBS-T solution. • (6) The sample was immersed in 5% BSA in PBS solution for 1 hour for blocking. • (7) The brain tissues were input into 3% BSA in which primary antibody (AT8) was diluted at a ratio of 1:200, 0.1% Tween-20 in PBS solution, followed by overnight (O/N) binding. • (8) On day 2, the brain tissues were immersed in PBS solution, and washed three times for 10 minutes. • (9) The brain tissues were input into 3% BSA in which secondary antibody was diluted at a ratio of 1:500, 0.1% Tween-20 in PBS solution, followed by binding at room temperature for 1 hour. • (10) The brain tissues were immersed in PBS solution, and washed once for 10 minutes. • (11) The brain tissues were immersed in Hoechst (stock conc., 1mg/mL) diluted at a ratio of 1:2000 in PBS solution, followed by nuclei staining. • (12) The brain tissues were immersed in PBS solution, and washed three times for 10 minutes. • (13) Brain tissue fluorescent imaging was performed using a slide scanner.\n(§2) • (1) In order to obtain fluorescent images of the stained brain tissues, a brain tissue slide was scanned using Zeiss Axio Scan (Zeiss, Oberkochen, Germany). • BiFC fluorescence: λex=460-490 nm, λem=500-550 nm • AT8 fluorescence: λex=620-640 nm, λem=650-700 nm • Hoechst fluorescence: λex=330-375 nm, λem=430-470 nm • (3) For brain tissues per site obtained through imaging, fluorescent value was calculated through Image J software (NIH)."}, "tau oligomer (Tau-BiFC)": {"molecular_target": "T1, tau oligomer (Tau-BiFC) (Homo sapiens, UniProt P10636, P618L)", "T1 construct": "VN173 (BiFC fragment); VC155 (BiFC fragment); expressed in transfected cells; host or cells: brain of transgenic TauP301L-BiFC mice (transgene-expressed)", "experiment": "Tau-BiFC fluorescent imaging of brain tissues (tau oligomer formation)", "assay_type": "in vivo, mouse", "excerpt": "as §1\n• (1) On day 1, a brain tissue sample having a thickness of 30 µm under cryosection was selected for each brain region, immersed in PBS solution, and then washed three times. • (2) A solution of 0.05% Sudan Black B in 70% EtOH was stirred overnight (O/N), and then, particles were filtered through 0.22 µm filter. • (3) The selected brain tissue sample was immersed in distilled water (D.W.), and washed three times for 5 minutes. • (4) The brain tissues were immersed in a prepared 0.05% Sudan Black B solution, followed by staining for 10 minutes. • (5) The brain tissues stained in Sudan black B were immersed in 0.1% PBS-T solution, and washed at an interval of 30 seconds to control a degree of staining. • (6) The tissues were washed in D.W. three times for 5 minutes. • (7) In Hoechst solution at a concentration of 0.2 µg/mL in distilled water, the brain tissues were immersed to conduct nuclei staining for 20 minutes. • (8) The tissues were washed in D.W. three times for 5 minutes. • (9) Tau-BiFC imaging was performed using a slide scanner.\nas §2"}, "[3]": {"conditions": "reported in Kim et al., Exp. Mol. Med. 55, 612-627 (2023); read-out: GI50 (cytotoxicity side effects); cited from earlier work"}, "[4]": {"conditions": "LMTM 15 mg/kg oral vs. vehicle, decrease (in parentheses)"}, "[5]": {"conditions": "LMTM 15 mg/kg oral vs. vehicle, decrease (in parentheses), *p<0.05"}}, "data": [{"smiles": "CN(C)c1ccc2c(c1)Sc1cc(N(C)C)ccc1N2.CS(=O)(=O)O.CS(=O)(=O)O", "note": "[LMTM]", "values": [{"measurement": "most common side effects", "setting": "[1]", "result": "most common side effects related to gastrointestinal and urinary system"}, {"measurement": "AT8 fluorescent level, Somatosensory cortex", "setting": "[2]; [4]", "result": "(31 %)"}, {"measurement": "AT8 fluorescent level, Substantia nigra", "setting": "[2]; [4]", "result": "(16 %)"}, {"measurement": "AT8 fluorescent level, Hippocampus", "setting": "[2]; [5]", "result": "(28 %)*"}, {"measurement": "AT8 fluorescent level, Motor cortex", "setting": "[2]; [5]", "result": "(26 %)*"}, {"measurement": "AT8 fluorescent level as compared to the vehicle group, in words", "setting": "[2]; LMTM 15 mpk", "result": "significantly reduced in the somatosensory cortex, motor cortex and hippocampus regions"}, {"measurement": "TauBiFC fluorescent level, Somatosensory cortex", "setting": "tau oligomer (Tau-BiFC); [4]", "result": "(15 %)"}, {"measurement": "TauBiFC fluorescent level, Substantia nigra", "setting": "tau oligomer (Tau-BiFC); [4]", "result": "(26 %)"}, {"measurement": "TauBiFC fluorescent level, Hippocampus", "setting": "tau oligomer (Tau-BiFC); [5]", "result": "(21 %)*"}, {"measurement": "TauBiFC fluorescent level, Motor cortex", "setting": "tau oligomer (Tau-BiFC); [5]", "result": "(27 %)*"}, {"measurement": "Tau-BiFC fluorescent level as compared to the vehicle group, in words", "setting": "tau oligomer (Tau-BiFC); LMTM 15 mpk", "result": "significantly reduced in the motor cortex, hippocampus and substantia nigra regions"}, {"measurement": "GI50", "setting": "[3]", "result": "6.4 ± 0.3", "unit": "µM"}]}]}
